Test results published in paper PMC6535779, “A Specific, Glycomimetic Langerin Ligand for Human Langerhans Cell Targeting” (ACS Central Science, 2019).

Molecular target: T1, DC-SIGN CRD (Homo sapiens, UniProt Q9NNX6)
T1 construct: with the DC-SIGN CRD were performed at a receptor concentration of 50 μM; made in house
T1 sequence (Q9NNX6 263-378 limits assumed): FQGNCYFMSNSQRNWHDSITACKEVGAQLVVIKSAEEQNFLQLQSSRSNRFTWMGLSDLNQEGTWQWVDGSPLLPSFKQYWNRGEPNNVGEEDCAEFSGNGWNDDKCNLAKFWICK
Test: 19F R2-filtered NMR reporter displacement assay with DC-SIGN
Type: binding
Settings: for Ki: 19F R2-filtered NMR, DC-SIGN CRD, pH 7.0, 25 °C; for specificity: Table 1, Langerin against DC-SIGN
Description: Figure S7. 19F R2-filtered NMR assay development with DC-SIGN. […]
substantial line broadeni ng. This phenomenon was utilized to develop the 19F R2-filtered NMR reporter displacement assay following the procedure previously published for Langerin 3. The spectrum in absence of DC -SIGN is processed with an exponential apodization function at 1.8 Hz. b. The interaction between 24 and DC-SIGN was quantified via the transversal relaxation rate R2,obs using the CPMG pulse sequence4-5. Representative decay curves in the presence of DC-SIGN are shown. c. The Ca2+-dependency of the interaction was validated via addition of EDTA. The R2,obs value in absence of DC-SIGN was determined from four independent experiments. The standard error for the experiments in presence of DC-SIGN and EDTA is derived directly from the fitting procedure. d. Relaxation dispersion experiments for 24 in presence of DC-SIGN indicate at negligible exchange contribution R2,ex at a νCPMG value of 500 Hz. In contrast to Langerin, a considerable exchange contribution is observed a lower νCPMG values. e. A representative binding isotherm for the affinity determination for 24 is shown. The KD value was determined from three independent titrations. The obtained K D and additional parameters from the fitting procedure are given in Tab le S3.
(1 picture or pasted object on this page, not shown here)
Receptor Expression and Purification
General remarks. Codon-optimized genes for the expression of Langerin and DC-SIGN in E. coli were purchased from GenScript and Life Technologies, respectively. All growth media or chemicals used for receptor expression and purification were purchased from Carl Roth if not stated otherwise. […]
Langerin and DC-SIGN carbohydrate recognition domain. Expression and purification were conducted as previously published14. Briefly, the monomeric 15N-labeled Langerin and DC-SIGN carbohydrate recognition domains (CRDs) were expressed insolubly in E. coli BL21* (DE3) (Invitrogen). Following enzymatic cell lysis, inclusion bodies were harvested and subsequently solubilized. The sample was centrifuged and the Langerin and DC-SIGN CRDs were refolded overnight via rapid dilution. Next, the sample was dialyzed overnight, centrifuged and purified via StrepTactin affinity chromatography (Iba). After an additional dialysis step overnight, the sample was centrifuged and the buffer was exchanged to 25 mM HEPES with 150 mM NaCl at pH 7.0 using 7 kDa size-exclusion desalting columns (Thermo Scientific) for 19F R2-filtered and 15N HSQC NMR experiments. The concentration of Langerin and DC -SIGN CRDs was determined via UV spectroscopy (A280, 0.1% = 3.19 and A280, 0.1% = 2.98). Purity and monodispersity of Langerin and DC - SIGN CRD samples were analyzed via SDS PAGE and DLS.
General remarks. 19F R2-filtered NMR experiments were conducted on a PremiumCompact 600 MHz spectrometer (Agilent). Spectra were processed in MestReNova and data analysis was performed with OriginPro 13, 15. Experiments with the Langerin ECD were performed at a receptor concentration of 50 μM in 25 mM Tris with 10% D2O, 150 mM NaCl and 5 mM CaCl2 at pH 7.8 and 25° C. Experiments […]
with the DC-SIGN CRD were performed at a receptor concentration of 50 μM in 25 mM HEPES with 10% D2O, 150 mM NaCl and 5 mM CaCl2 at pH 7.0 and 25°C. TFA served as an internal reference at a concentration of 50 μM. Apparent relaxation rates R2,obs for the reporter ligand were determined using the CPMG pulse sequence as previously published3-5.
Assay development for DC-SIGN. The 19F R2-filtered NMR reporter displacement assay for DC-SIGN was developed following the procedure previously published for Langerin3. Briefly, the KD value and the relaxation rate in bound state R2,b were determined at five concentrations [L]T of reporter ligand 24 in three independent titration experiments. Samples were prepared via serial dilution. The addition of 10 mM EDTA served to validate the Ca2+-dependency of the interaction between DC-SIGN and the reporter ligand. […]

Row | Ki [mM] | specificity (from KI values) | specificity for Langerin against DC-SIGN (from KI values) [fold] | specificity for DC-SIGN over Langerin (from KI values) [fold] | SMILES
1 | 17 ± 1 | 53 | – | – | Cc1ccc(S(=O)(=O)N[C@H]2C(O)O[C@H](CO)[C@@H](O)[C@@H]2O)cc1 (some centres unmarked) [compound 2]
2 | 15 ± 3 | 63 | 63 | – | CC(=O)NCCO[C@@H]1O[C@H](CO)[C@@H](O)[C@H](O)[C@H]1NS(=O)(=O)c1ccc(C)cc1 [compound 16]
3 | 2.7 ± 0.3 | 0.27 | – | 3.7 | CC(=O)NCCO[C@H]1O[C@H](CO)[C@@H](O)[C@H](O)[C@@H]1O [compound 21]
